“And” between values parts separate entries of the source, which are not always exact repeats. Identical values can stand only once. Like-named read-outs stand apart in the source and are kept apart here. Peptide text beside a SMILES is read from it.
Assays:
Format in all cases: biochemical
[1] = system: B. corporis; assay: Aminopeptidase activity on β-naphthylamide substrates
Protocol: (§1) The enzyme activity was measured by the chromogenic properties of N-CBz-glycyl-glycyl-L-arginine-β-naphthylamide which upon hydrolysis gives a visible color. The aminopeptidase activities listed in the table reflect the nanomoles of β-naphthylamine liberated after 60 minutes under the conditions described below.
(§2) After mixing, the solution is incubated for 1 hour at 37° C. and then 0.4 ml of a solution of stabilized diazonium salt, Fast Garnet GBC (0.5 mg/ml) in a 1M acetic acid buffer (pH 4.2), containing 10% Tween 20 was added to the mixture. After standing for 15 minutes at room temperature, the color reaction can be read manually by comparison with standard solutions or the absorbancy can be determined using a spectrophotometer at 525 nm. The reaction mixture without enzyme solution is used as a control.

[2] = system: B. melaninogenicus; assay: as above
Protocol: as §1, §2

[3] = system: C. sputigena; assay: as above
Protocol: as §1, §2

[4] = system: B. denticola; assay: as above
Protocol: as §1, §2

[5] = system: B. intermedius; assay: as above
Protocol: as §1, §2

[6] = system: B. loescheii
Protocol: as §1, §2

[7] = system: B. levii
Protocol: as §1, §2

[8] = system: C. ochracea
Protocol: as §1, §2

[9] = system: B. mel. ss. intermedius
Protocol: as §1, §2

[10] = system: Capnocytophaga sp.
Protocol: as §1, §2

[11] = system: Capnocytophaga gingivalis
Protocol: as §1, §2

[12] = system: Veillonella alcalesens; assay: Aminopeptidase activity on β-naphthylamide substrates
Protocol: as §1, §2
(§3) The enzyme activity and the aminopeptidase activities were determined in the manner described above in regard to Table I.

[13] = system: Lactobacillus casei; assay: as above
Protocol: as §1, §2, §3

[14] = system: F. periodonticum; assay: as above
Protocol: as §1, §2, §3

[15] = system: Haemophilus aphrophilus; assay: as above
Protocol: as §1, §2, §3

[16] = system: A. suis; assay: as above
Protocol: as §1, §2, §3

[17] = system: A. equuli; assay: as above
Protocol: as §1, §2, §3

[18] = system: L. fermentum; assay: as above
Protocol: as §1, §2, §3

[19] = system: Eikenella corrodens
Protocol: as §1, §2, §3

[20] = system: "Anaerobic vibrio"
Protocol: as §1, §2, §3

[21] = system: Fusobacterium nucleatum
Protocol: as §1, §2, §3

[22] = system: V. parvula
Protocol: as §1, §2, §3

[23] = system: A. seminis
Protocol: as §1, §2, §3

[24] = system: S. mutans
Protocol: as §1, §2, §3

[25] = system: Campylobacter sputorum
Protocol: as §1, §2, §3

[26] = system: S. sanguis
Protocol: as §1, §2, §3

[27] = system: Veillonella sp.
Protocol: as §1, §2, §3

[28] = system: A. viscosus
Protocol: as §1, §2, §3

[29] = system: S. salivarius; assay: Aminopeptidase activity on β-naphthylamide substrates; details: β-naphthylamine liberated after 60 minutes, 37° C.
Protocol: as §1, §2, §3

[30] = system: Actinomyces israeli
Protocol: as §1, §2, §3

[31] = strain D31A-24, β-naphthylamine liberated after 60 minutes, 37° C.

## NCCCC[C@H](N)C(=O)N1CCC[C@H]1C(=O)O [Lys-Pro, Lysyl-proline] (H-Lys-Pro-OH)
[1]
  Aminopeptidase activity: 75
[2]
  Aminopeptidase activity: 70
[3]
  Aminopeptidase activity: 86
[4]
  Aminopeptidase activity: 86
[5]
  Aminopeptidase activity: 63
[6]
  Aminopeptidase activity: 81 and 89
[7]
  Aminopeptidase activity: 51 and 54
[8]
  Aminopeptidase activity: 108
[9]
  Aminopeptidase activity: 54 and 75 and 69
[10]
  Aminopeptidase activity: 35
[11]
  Aminopeptidase activity: 176
[12]
  Aminopeptidase activity: 1
[13]
  Aminopeptidase activity: 0
[14]
  Aminopeptidase activity: 1
[15]
  Aminopeptidase activity: 0
[16]
  Aminopeptidase activity: 0
[17]
  Aminopeptidase activity: 0
[18]
  Aminopeptidase activity: 0
[19]
  Aminopeptidase activity: 0
[20]
  Aminopeptidase activity: 3
[21]
  Aminopeptidase activity: 2 and 1
[21]; [31]
  Aminopeptidase activity: 2 nmol
[22]
  Aminopeptidase activity: 0
[23]
  Aminopeptidase activity: 0
[24]
  Aminopeptidase activity: 14
[25]
  Aminopeptidase activity: 3
[26]
  Aminopeptidase activity: 5 and 4
[27]
  Aminopeptidase activity: 1
[28]
  Aminopeptidase activity: 5 and 7

## N=C(N)NCCC[C@H](NC(=O)CN)C(=O)O [Gly-Arg, Glycyl-arginine] (H-Gly-Arg-OH)
[1]; strain ATCC 33547, β-naphthylamine liberated after 60 minutes, 37° C.
  Aminopeptidase activity: 0 nmol
[2]; strain ATCC 25845, β-naphthylamine liberated after 60 minutes, 37° C.
  Aminopeptidase activity: 4 nmol
[3]; strain ATCC 33123, β-naphthylamine liberated after 60 minutes, 37° C.
  Aminopeptidase activity: 8 nmol
[4]; strain ATCC 33185, β-naphthylamine liberated after 60 minutes, 37° C.
  Aminopeptidase activity: 4 nmol
[5]; strain ATCC 25611, β-naphthylamine liberated after 60 minutes, 37° C.
  Aminopeptidase activity: 22 nmol
[8]
  Aminopeptidase activity: 11
[9]
  Aminopeptidase activity: 13 and 9
[10]
  Aminopeptidase activity: 20
[11]
  Aminopeptidase activity: 6
[12]; strain ATCC 11748, β-naphthylamine liberated after 60 minutes, 37° C.
  Aminopeptidase activity: 0 nmol
[13]; strain ATCC 7469, β-naphthylamine liberated after 60 minutes, 37° C.
  Aminopeptidase activity: 0 nmol
[13]; strain ATCC 11578, β-naphthylamine liberated after 60 minutes, 37° C.
  Aminopeptidase activity: 0 nmol
[13]; strain ATCC 11582, β-naphthylamine liberated after 60 minutes, 37° C.
  Aminopeptidase activity: 1 nmol
[14]; strain EK1-15, β-naphthylamine liberated after 60 minutes, 37° C.
  Aminopeptidase activity: 0 nmol
[15]; strain ATCC 13252, β-naphthylamine liberated after 60 minutes, 37° C.
  Aminopeptidase activity: 0 nmol
[15]; strain ATCC 19415, β-naphthylamine liberated after 60 minutes, 37° C.
  Aminopeptidase activity: 0 nmol
[15]; strain NCTC 5908, β-naphthylamine liberated after 60 minutes, 37° C.
  Aminopeptidase activity: 0 nmol
[16]; strain ATCC 15557, β-naphthylamine liberated after 60 minutes, 37° C.
  Aminopeptidase activity: 0 nmol
[29]; strain ATCC 9759
  Aminopeptidase activity: 0 nmol
[29]; strain ATCC 25975
  Aminopeptidase activity: 0 nmol
[17]; strain ATCC 19392, β-naphthylamine liberated after 60 minutes, 37° C.
  Aminopeptidase activity: 0 nmol
[18]; strain ATCC 11581, β-naphthylamine liberated after 60 minutes, 37° C.
  Aminopeptidase activity: 0 nmol
[19]
  Aminopeptidase activity: 2
[20]
  Aminopeptidase activity: 0
[21]
  Aminopeptidase activity: 0
[21]; [31]
  Aminopeptidase activity: 1 nmol
[30]
  Aminopeptidase activity: 0
[22]
  Aminopeptidase activity: 0
[23]
  Aminopeptidase activity: 0
[24]
  Aminopeptidase activity: 0
[25]
  Aminopeptidase activity: 0
[26]
  Aminopeptidase activity: 3
[27]
  Aminopeptidase activity: 0

Source: US4994376A, “Detection of bacteroides gingivalis” (priority 1987, dated 1991)
